Measured values reported in ChEMBL document CHEMBL1671702, “Baseline genotypic and phenotypic susceptibilities of HIV-1 group O to enfuvirtide” (Antimicrob Agents Chemother, 2010).
pIC50: −log10 of the molar value. Active and inactive are the calls of the source. The rule behind the calls is not given here.

Key:
[1] = test system: Human immunodeficiency virus 1; experiment: Antiviral activity against HIV-1 group O expressing gp41 N42D, N43K mutant gene; type: functional
[2] = test system: Human immunodeficiency virus type 1 (BRU ISOLATE); experiment: Antiviral activity against Human immunodeficiency virus type 1 (BRU ISOLATE); type: functional
[3] = test system: Human immunodeficiency virus 2; experiment: Antiviral activity against Human immunodeficiency virus type 2 (ISOLATE ROD); type: functional, organism-based
[4] = test system: Human immunodeficiency virus 1; experiment: Antiviral activity against HIV-1 group O; settings: Human immunodeficiency virus 1, group O
[5] = test system: Human immunodeficiency virus 1; experiment: Antiviral activity against HIV-1 group M; settings: Human immunodeficiency virus 1, group M
[6] = test system: Human immunodeficiency virus 1; experiment: Antiviral activity against HIV-1 group O expressing gp41 T27A mutant gene; type: functional
[7] = test system: Human immunodeficiency virus 1; experiment: Antiviral activity against HIV-1 group O expressing gp41 E119Q mutant gene; type: functional

Q: With enfuvirtide as the substance, how does the pIC50 [1] read?
A: 8.19

Q: And the Activity [2]?
A: Active

Q: And the Activity [3]?
A: inactive

Q: And the pIC50 [4]?
A: 8.40

Q: And the pIC50 [5]?
A: 8.19

Q: And the pIC50 [6]?
A: < 6.00

Q: And the pIC50 [7]?
A: < 6.00
